# Tested on: compound-treated mice
# Experiment: Neuropharmacological assay (SmartCube): behavioral activity signature and minimal effective dose
# Format: in vivo
# Settings: for Potency: minimal effective dose (MED), binned / minimal effective dose: MED = dose having 50% or more total activity; for AD: ADHD (probability of activity signature) / AG: analgesic (probability of activity signature) / AX: anxiolytic (probability of activity signature) / CE: cognitive enhancer (probability of activity signature) / DP: anti-depressant (probability of activity signature) / MS: mood stabilizer (probability of activity signature) / PS: anti-psychotic (probability of activity signature) / SD: sedative hypnotic (probability of activity signature) / UN: uncharacterized CNS activity (probability of activity signature): i.p. 15 min before test, most efficacious dose(s); for minimal effective dose: Mus musculus, ip, read-out: Potency: minimal effective dose (MED), binned
# Source text: Neurosci. 2011 Sep. 9; 5:103 (doi: 10.3389/fnins.2011.00103) (“Roberds”). As reported in Roberds, because psychiatric diseases generally result from disorders of cell-cell communication or circuitry, intact systems are useful in detecting improvement in disease-relevant endpoints. These endpoints are typically behavioral in nature, often requiring human observation and interpretation. To facilitate testing of multiple compounds for behavioral effects relevant to psychiatric disease, PsychoGenics, Inc. (Tarrytown, N.Y., “PGI”) developed SmartCube™, an automated system in which behaviors of compound-treated mice are captured by digital video and analyzed with computer algorithms. (D. Brunner et al., Drug Discov. Today 2002, 7:S107-S112). PGI Analytical Systems uses data from SmartCube™ to compare the behavioral signature of a test compound to a database of behavioral signatures obtained using a large set of diverse reference compounds. (The composition of the database as well as validation of the method is further described in Roberds). In this way, the neuropharmacological effects of a test compound can be predicted by similarity to major classes of compounds, such as antipsychotics, anxiolytics and antidepressants.
# The SmartCube™ system produces an activity signature indicating the probability that the activity of the test compound at the administered dose matches a given class of neuropharmacological agents. (See, e.g., Roberds, FIGS. 2 and 3). The test compound is simultaneously compared against multiple classes of agents; thus, a separate probability is generated for each behavioral effect measured (e.g., anxiolytic activity, analgesic activity, etc.). In the table below, these probabilities are reported for each behavioral effect measured as follows:
# where LOQ is the limit of quantification.
# Provided compounds were dissolved in a mixture of Pharmasolve™ (N-methyl-2-pyrrolidone), polyethylene glycol and propylene glycol, and were injected i.p. 15 min. before the behavioral test. For each compound, injections were administered at 3 different doses. For each behavioral effect measured, results for the most efficacious dose(s) are presented. In the table below, DP: anti-depressant; AX: anxiolytic; SD: sedative hypnotic; PS: anti-psychotic; MS: mood stabilizer; AD: ADHD; CE: cognitive enhancer; AG: analgesic; UN: uncharacterized CNS activity.
# The potency of many of the compounds in the table was also determined in the SmartCube™ system. Test compounds were routinely examined at dose levels of 0.3, 1, 3, 10 and 30 mg per kg (mpk), although the dose range was increased or decreased if necessary to obtain a full dose response curve. A compound's minimal effective dose (MED) is a measure of the compounds potency. The MED was defined as the dose (in mpk) having 50% or more total activity in SmartCube.
SMILES,"Potency: minimal effective dose (MED), binned",AD: ADHD (probability of activity signature),AG: analgesic (probability of activity signature),AX: anxiolytic (probability of activity signature),CE: cognitive enhancer (probability of activity signature),DP: anti-depressant (probability of activity signature),MS: mood stabilizer (probability of activity signature),PS: anti-psychotic (probability of activity signature),SD: sedative hypnotic (probability of activity signature),UN: uncharacterized CNS activity (probability of activity signature),minimal effective dose
"Cl.NC1COCc2ccc3c(c21)C1CCC3C1 (single isomer, unassigned) [Example 162]",B (>3 to 10 mpk),+ (LOQ ≤ + <5%),++ (5% ≤ ++ <25%),+++ (25% ≤ +++ <50%),++ (5% ≤ ++ <25%),+ (LOQ ≤ + <5%),+ (LOQ ≤ + <5%),++ (5% ≤ ++ <25%),+ (LOQ ≤ + <5%),+++ (25% ≤ +++ <50%),
"Cl.NC1COCc2ccc3c(c21)C1CCC3C1 (single isomer, unassigned) [Example 163]",B (>3 to 10 mpk),+ (LOQ ≤ + <5%),++ (5% ≤ ++ <25%),++ (5% ≤ ++ <25%),++ (5% ≤ ++ <25%),++ (5% ≤ ++ <25%),+ (LOQ ≤ + <5%),+++ (25% ≤ +++ <50%),++ (5% ≤ ++ <25%),+++ (25% ≤ +++ <50%),
"Cl.NC1COCc2ccc3c(c21)C1CCC3C1 (single isomer, unassigned) [Example 164]",B (>3 to 10 mpk),+ (LOQ ≤ + <5%),++ (5% ≤ ++ <25%),+++ (25% ≤ +++ <50%),++ (5% ≤ ++ <25%),+ (LOQ ≤ + <5%),+ (LOQ ≤ + <5%),++ (5% ≤ ++ <25%),++ (5% ≤ ++ <25%),+++ (25% ≤ +++ <50%),
"Cc1ccc(C)c2c1COC[C@H]2N (single isomer, unassigned) [Example 165]",,+ (LOQ ≤ + <5%),+ (LOQ ≤ + <5%),++ (5% ≤ ++ <25%),++ (5% ≤ ++ <25%),++ (5% ≤ ++ <25%),+ (LOQ ≤ + <5%),++ (5% ≤ ++ <25%),+ (LOQ ≤ + <5%),++++ (50% ≤ ++++),3 to 10 mg/kg
"Cc1ccc(C)c2c1COC[C@@H]2N (single isomer, unassigned) [Example 166]",,+ (LOQ ≤ + <5%),+ (LOQ ≤ + <5%),++ (5% ≤ ++ <25%),++ (5% ≤ ++ <25%),+ (LOQ ≤ + <5%),+ (LOQ ≤ + <5%),++ (5% ≤ ++ <25%),++ (5% ≤ ++ <25%),++++ (50% ≤ ++++),3 to 10 mg/kg
"Cc1cccc2c1[C@H](N)[C@@H](C)OC2 (single isomer, unassigned) [Example 167]",,+ (LOQ ≤ + <5%),++ (5% ≤ ++ <25%),++ (5% ≤ ++ <25%),+ (LOQ ≤ + <5%),+ (LOQ ≤ + <5%),+ (LOQ ≤ + <5%),++ (5% ≤ ++ <25%),+ (LOQ ≤ + <5%),++++ (50% ≤ ++++),< 3 mg/kg
"Cc1cccc2c1[C@@H](N)[C@H](C)OC2 (single isomer, unassigned) [Example 168]",,+ (LOQ ≤ + <5%),+ (LOQ ≤ + <5%),++ (5% ≤ ++ <25%),++ (5% ≤ ++ <25%),++ (5% ≤ ++ <25%),+ (LOQ ≤ + <5%),+++ (25% ≤ +++ <50%),+ (LOQ ≤ + <5%),++++ (50% ≤ ++++),3 to 10 mg/kg
"Cc1cccc2c1[C@H](N)[C@H](C)OC2 (single isomer, unassigned) [Example 169]",,+ (LOQ ≤ + <5%),++ (5% ≤ ++ <25%),++ (5% ≤ ++ <25%),++ (5% ≤ ++ <25%),++ (5% ≤ ++ <25%),+ (LOQ ≤ + <5%),++ (5% ≤ ++ <25%),++ (5% ≤ ++ <25%),++++ (50% ≤ ++++),< 3 mg/kg
"COc1ccc2c(c1)[C@H](N)[C@@H](C)OC2 (single isomer, unassigned) [Example 171]",,+ (LOQ ≤ + <5%),++ (5% ≤ ++ <25%),+++ (25% ≤ +++ <50%),++ (5% ≤ ++ <25%),++ (5% ≤ ++ <25%),+ (LOQ ≤ + <5%),++ (5% ≤ ++ <25%),++ (5% ≤ ++ <25%),+++ (25% ≤ +++ <50%),< 3 mg/kg
"COc1ccc2c(c1)[C@@H](N)[C@H](C)OC2 (single isomer, unassigned) [Example 172]",,+ (LOQ ≤ + <5%),++ (5% ≤ ++ <25%),++ (5% ≤ ++ <25%),+ (LOQ ≤ + <5%),+ (LOQ ≤ + <5%),+ (LOQ ≤ + <5%),++ (5% ≤ ++ <25%),+ (LOQ ≤ + <5%),+++ (25% ≤ +++ <50%),10 to 30 mg/kg
"COc1ccc2c(c1)[C@H](N)[C@H](C)OC2 (single isomer, unassigned) [Example 173]",,+ (LOQ ≤ + <5%),++ (5% ≤ ++ <25%),++ (5% ≤ ++ <25%),++ (5% ≤ ++ <25%),+ (LOQ ≤ + <5%),+ (LOQ ≤ + <5%),+ (LOQ ≤ + <5%),+ (LOQ ≤ + <5%),++++ (50% ≤ ++++),3 to 10 mg/kg
"COc1ccc2c(c1)[C@@H](N)[C@@H](C)OC2 (single isomer, unassigned) [Example 174]",,+ (LOQ ≤ + <5%),++ (5% ≤ ++ <25%),++ (5% ≤ ++ <25%),++ (5% ≤ ++ <25%),++ (5% ≤ ++ <25%),+ (LOQ ≤ + <5%),++ (5% ≤ ++ <25%),+ (LOQ ≤ + <5%),++++ (50% ≤ ++++),3 to 10 mg/kg
